In ChEMBL document CHEMBL1268988, “An in situ oxidation strategy towards overcoming hERG affinity” (Bioorg Med Chem Lett, 2010):

Key:
[1] = Inhibition of HIV1 gp160 by cell-cell fusion inhibition assay; design: species or system Human immunodeficiency virus 1
[2] = Permeability from apical to basolateral side in human Caco-2 cells at 5 uM; type: ADME, cell-based; settings: read-out: permeability
[3] = molecular target: T1, Voltage-gated inwardly rectifying potassium channel KCNH2 (Homo sapiens, UniProt Q12809); assay: Inhibition of human ERG at 10 uM
[4] = Permeability from apical to basolateral side of human Caco-2 cells at 5 uM; type: ADME, cell-based; settings: read-out: permeability
[5] = Metabolic stability in human liver microsomes assessed as intrinsic clearance at 1 uM; type: ADME, Microsome
[6] = Membrane permeability across dog RRCK at 2 uM; type: ADME, cell-based, Canis lupus familiaris, MDCKII-LE; settings: MDCK, read-out: permeability
[7] = Lipophilicity, log D of the compound; type: physicochemical; settings: octanol/water
[8] = Absorption in rat at 3 mg/kg, po; type: ADME, organism-based; design: dose 3 mg/kg, route oral; settings: in vivo, read-out: Activity
[9] = tested on: Rattus norvegicus; assay: fAUC in rat at 1 mg/kg, iv; type: ADME, organism-based; design: dose 1 mg/kg, route intravenous; settings: in vivo
[10] = AUC in rat at 1 mg/kg, iv; type: ADME, organism-based; design: dose 1 mg/kg, route intravenous; settings: plasma
[11] = tested on: Rattus norvegicus; assay: Unbound clearance in rat at 1 mg/kg, iv; type: ADME, organism-based; design: dose 1 mg/kg, route intravenous; settings: in vivo
[12] = Metabolic stability in rat liver microsomes assessed as intrinsic clearance; type: ADME, Microsome
[13] = tested on: Rattus norvegicus; assay: Unbound volume of distribution in rat at 1 mg/kg, iv; type: ADME, organism-based; design: dose 1 mg/kg, route intravenous; settings: in vivo
[14] = molecular target: T1, Voltage-gated inwardly rectifying potassium channel KCNH2; assay: Inhibition of human ERG
[15] = AUC in rat at 3 mg/kg, po; type: ADME, organism-based; design: dose 3 mg/kg, route oral; settings: plasma
[16] = tested on: Rattus norvegicus; assay: fAUC in rat at 3 mg/kg, po; type: ADME, organism-based; design: dose 3 mg/kg, route oral; settings: in vivo
[17] = Terminal half life in rat at 1 mg/kg, iv; type: ADME, organism-based; design: dose 1 mg/kg, route intravenous; settings: in vivo, read-out: beta t1/2 (converted)
[18] = Clearance in rat at 1 mg/kg, iv; type: ADME, organism-based; design: dose 1 mg/kg, route intravenous; settings: in vivo
[19] = Oral bioavailability in rat at 3 mg/kg, po; type: ADME, organism-based; settings: in vivo
[20] = Volume of distribution in rat at 1 mg/kg, iv; type: ADME, organism-based; design: dose 1 mg/kg, route intravenous; settings: in vivo
[21] = Clearance in rat at 1 mg/kg, iv and 2 mg/kg, po; type: ADME, organism-based; settings: in vivo
[22] = Half life in rat at 1 mg/kg, iv and 2 mg/kg, po; type: ADME, organism-based; settings: in vivo
[23] = Volume of distribution in rat at 1 mg/kg, iv and 2 mg/kg, po; type: ADME, organism-based; settings: in vivo
[24] = Oral bioavailability in rat at 1 mg/kg, iv and 2 mg/kg, po; type: ADME, organism-based; settings: in vivo

T1 sequence (Q12809 whole entry): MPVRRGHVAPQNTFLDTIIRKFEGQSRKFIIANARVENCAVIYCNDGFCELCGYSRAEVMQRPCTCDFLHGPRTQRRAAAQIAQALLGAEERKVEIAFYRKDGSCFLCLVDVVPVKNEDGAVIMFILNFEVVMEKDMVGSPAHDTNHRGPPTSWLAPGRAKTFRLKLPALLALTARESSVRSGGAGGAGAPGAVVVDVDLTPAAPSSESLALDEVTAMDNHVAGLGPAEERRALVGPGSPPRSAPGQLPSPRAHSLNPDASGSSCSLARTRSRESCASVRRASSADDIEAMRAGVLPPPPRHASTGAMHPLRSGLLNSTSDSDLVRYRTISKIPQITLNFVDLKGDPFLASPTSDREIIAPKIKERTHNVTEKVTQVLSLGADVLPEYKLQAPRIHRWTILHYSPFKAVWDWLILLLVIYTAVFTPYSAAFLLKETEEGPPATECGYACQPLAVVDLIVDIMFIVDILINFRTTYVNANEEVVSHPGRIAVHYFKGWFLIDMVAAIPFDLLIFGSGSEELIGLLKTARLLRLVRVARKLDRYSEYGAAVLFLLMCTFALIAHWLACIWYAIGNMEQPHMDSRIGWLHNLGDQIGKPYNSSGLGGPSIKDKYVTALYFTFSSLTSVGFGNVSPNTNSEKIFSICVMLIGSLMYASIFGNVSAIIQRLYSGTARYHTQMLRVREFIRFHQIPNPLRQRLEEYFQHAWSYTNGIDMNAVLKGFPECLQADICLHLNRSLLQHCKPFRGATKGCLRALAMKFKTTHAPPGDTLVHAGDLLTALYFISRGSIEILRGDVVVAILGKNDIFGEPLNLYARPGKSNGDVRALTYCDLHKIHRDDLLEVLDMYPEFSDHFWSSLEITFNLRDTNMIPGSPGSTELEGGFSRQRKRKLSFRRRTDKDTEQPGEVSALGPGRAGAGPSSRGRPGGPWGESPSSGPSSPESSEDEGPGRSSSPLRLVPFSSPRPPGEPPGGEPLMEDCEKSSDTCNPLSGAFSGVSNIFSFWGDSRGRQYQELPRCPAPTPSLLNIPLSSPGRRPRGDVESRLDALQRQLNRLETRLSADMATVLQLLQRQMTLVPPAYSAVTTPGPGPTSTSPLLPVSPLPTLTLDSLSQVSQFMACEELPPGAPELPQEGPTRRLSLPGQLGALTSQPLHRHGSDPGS

Compound	IC50 [1]	inhibition (INH) [3]	microsomal CLint at 1 µM [5]	Papp at 2 µM [6]	further results
Cc1nc2ccccc2n1C1C[C@H]2CC[C@@H](C1)N2CC[C@H](NC(=O)c1ccc(S(C)(=O)=O)cc1)c1cccc(F)c1 (stereo not given in full)	40 nM	–	–	–	–
Cc1nc2ccc(F)cc2n1C1C[C@H]2CC[C@@H](C1)N2CCC(NC(=O)C1CC[S+]([O-])CC1)c1cccc(F)c1 (stereo not given in full)	0.01 nM	Not Active	–	–	Papp A→B at 5 µM [2]: 18 ×10⁻⁶ cm/s; Papp A→B at 5 µM [4]: 2 ×10⁻⁶ cm/s
Cc1nc2cc(F)ccc2n1C1C[C@H]2CC[C@@H](C1)N2CCC(NC(=O)C1CC[S+]([O-])CC1)c1cccc(F)c1 (stereo not given in full)	0.4 nM	Not Active	93 µL/min/mg	2 ×10⁻⁶ cm/s	–
CCc1nc2ccccc2n1C1C[C@H]2CC[C@@H](C1)N2CCC(NC(=O)C1CC[S+]([O-])CC1)c1cccc(F)c1 (stereo not given in full)	0.05 nM	Not Active	89 µL/min/mg	2 ×10⁻⁶ cm/s	–
Cc1nc2ccc(F)cc2n1C1C[C@H]2CC[C@@H](C1)N2CC[C@H](NC(=O)C1CCS(=O)(=O)CC1)c1cccc(F)c1 (stereo not given in full)	0.01 nM	–	10 µL/min/mg	2 ×10⁻⁶ cm/s	Papp A→B at 5 µM [2]: 31 ×10⁻⁶ cm/s; logD [7]: 2.9; Papp A→B at 5 µM [4]: 5 ×10⁻⁶ cm/s; Fa [8]: 3%
Cc1nc2cc(F)ccc2n1C1C[C@H]2CC[C@@H](C1)N2CC[C@H](NC(=O)C1CCS(=O)(=O)CC1)c1cccc(F)c1 (stereo not given in full)	0.03 nM	Not Active	14 µL/min/mg	2 ×10⁻⁶ cm/s	Papp A→B at 5 µM [2]: 21 ×10⁻⁶ cm/s; Papp A→B at 5 µM [4]: 3 ×10⁻⁶ cm/s
CCc1nc2ccccc2n1C1C[C@H]2CC[C@@H](C1)N2CC[C@H](NC(=O)C1CCS(=O)(=O)CC1)c1cccc(F)c1 (stereo not given in full)	0.3 nM	Not Active	25 µL/min/mg	3 ×10⁻⁶ cm/s	–
Cc1nc2ccccc2n1C1C[C@H]2CC[C@@H](C1)N2CC[C@H](NC(=O)c1ccc([S+](C)[O-])cc1)c1cccc(F)c1 (stereo not given in full)	40 nM	–	–	–	–
Cc1nc2ccncc2n1C1C[C@H]2CC[C@@H](C1)N2CC[C@H](NC(=O)c1ccc([S+](C)[O-])cc1)c1cccc(F)c1 (stereo not given in full)	2 nM	–	–	–	–
Cc1nc2ccc(F)cc2n1C1C[C@H]2CC[C@@H](C1)N2CC[C@H](NC(=O)c1ccc([S+](C)[O-])cc1)c1cccc(F)c1 (stereo not given in full)	1 nM	–	–	–	–
Cc1nc2cc(F)ccc2n1C1C[C@H]2CC[C@@H](C1)N2CC[C@H](NC(=O)c1ccc([S+](C)[O-])cc1)c1cccc(F)c1 (stereo not given in full)	36 nM	–	–	–	–
Cc1nc2ccncc2n1C1C[C@H]2CC[C@@H](C1)N2CC[C@H](NC(=O)c1ccc(S(C)(=O)=O)cc1)c1cccc(F)c1 (stereo not given in full)	1 nM	–	–	–	–
Cc1nc2cc(F)ccc2n1C1C[C@H]2CC[C@@H](C1)N2CC[C@H](NC(=O)c1ccc(S(C)(=O)=O)cc1)c1cccc(F)c1 (stereo not given in full)	8 nM	–	–	–	–
Cc1nc2cc(F)ccc2n1C1C[C@H]2CC[C@@H](C1)N2CC[C@H](NC(=O)c1cc[n+]([O-])cc1)c1cccc(F)c1 (stereo not given in full)	0.1 nM	–	–	–	–
CCc1nc2ccccc2n1C1C[C@H]2CC[C@@H](C1)N2CC[C@H](NC(=O)c1cc[n+]([O-])cc1)c1cccc(F)c1 (stereo not given in full)	24 nM	–	–	–	–
Cc1nc2ccc(F)cc2n1C1C[C@H]2CC[C@@H](C1)N2CC[C@H](NC(=O)c1ccc[n+]([O-])c1)c1cccc(F)c1 (stereo not given in full)	0.5 nM	–	–	–	–
Cc1nc2cc(F)ccc2n1C1C[C@H]2CC[C@@H](C1)N2CC[C@H](NC(=O)c1ccc[n+]([O-])c1)c1cccc(F)c1 (stereo not given in full)	1 nM	–	–	–	–
Cc1nc2ccncc2n1C1C[C@H]2CC[C@@H](C1)N2CC[C@H](NC(=O)C1CCS(=O)(=O)CC1)c1cccc(F)c1 (stereo not given in full)	0.2 nM	Not Active	< 8 µL/min/mg	1 ×10⁻⁶ cm/s	–
Cc1nc2ccncc2n1C1C[C@H]2CC[C@@H](C1)N2CC[C@H](NC(=O)c1cc[n+]([O-])cc1)c1cccc(F)c1 (stereo not given in full)	4 nM	–	–	–	–
Cc1nc2ccccc2n1C1C[C@H]2CC[C@@H](C1)N2CC[C@H](NC(=O)C1CCSCC1)c1cccc(F)c1 (stereo not given in full)	0.2 nM	–	> 320 µL/min/mg	29 ×10⁻⁶ cm/s	fAUC [9]: 6.7 ng·h/mL; AUC [10]: 270 ng·h/mL; CL free [11]: 2431 mL/min/kg; logD [7]: 3.7; microsomal CLint [12]: > 510 µL/min/mg; Vdu [13]: 81 L/kg; IC50 [14]: 740 nM; AUC [15]: 10 ng·h/mL; fAUC [16]: 0.25 ng·h/mL; half-life [17]: 0.8 h; clearance [18]: 60 mL/min/kg; bioavailability [19]: 1%; Fa [8]: 9%; Vd [20]: 2 L/kg
Cc1nc2ccccc2n1C1C[C@H]2CC[C@@H](C1)N2CC[C@H](NC(=O)[C@H]1CC[S@@+]([O-])CC1)c1cccc(F)c1 (stereo not given in full)	–	–	36 µL/min/mg	1 ×10⁻⁶ cm/s	Papp A→B at 5 µM [2]: 20 ×10⁻⁶ cm/s; Papp A→B at 5 µM [4]: 2 ×10⁻⁶ cm/s; AUC [15]: 11 ng·h/mL; fAUC [16]: 1.7 ng·h/mL
Cc1nc2ccccc2n1C1C[C@H]2CC[C@@H](C1)N2CC[C@H](NC(=O)[C@H]1CC[S@+]([O-])CC1)c1cccc(F)c1 (stereo not given in full)	–	–	111 µL/min/mg	1 ×10⁻⁶ cm/s	AUC [15]: 2 ng·h/mL; fAUC [16]: 0.3 ng·h/mL
Cc1nc2ccccc2n1C1C[C@H]2CC[C@@H](C1)N2CC[C@H](NC(=O)C1CC[S+]([O-])CC1)c1cccc(F)c1 (stereo not given in full)	0.2 nM	Not Active	38 µL/min/mg	0.8 ×10⁻⁶ cm/s	clearance [21]: 104 mL/min/kg; logD [7]: 2.3; half-life [22]: 2.6 h; Vd [23]: 23 L/kg; IC50 [14]: > 10000 nM; bioavailability [24]: < 1%
Cc1nc2ccccc2n1C1C[C@H]2CC[C@@H](C1)N2CC[C@H](NC(=O)C1CCS(=O)(=O)CC1)c1cccc(F)c1 (stereo not given in full)	0.2 nM	Not Active	23 µL/min/mg	4 ×10⁻⁶ cm/s	Papp A→B at 5 µM [2]: 20 ×10⁻⁶ cm/s; Papp A→B at 5 µM [4]: < 1 ×10⁻⁶ cm/s; AUC [15]: < 1 ng·h/mL; fAUC [16]: < 0.1 ng·h/mL
CC[S+]([O-])CC(=O)N[C@@H](CCN1[C@@H]2CC[C@H]1CC(n1c(C)nc3ccccc31)C2)c1cccc(F)c1 (stereo not given in full)	> 100 nM	–	–	–	–
Cc1nc2ccccc2n1C1C[C@H]2CC[C@@H](C1)N2CC[C@H](NC(=O)c1cc[n+]([O-])cc1)c1cccc(F)c1 (stereo not given in full)	4 nM	–	–	–	–
Cc1nc2ccccc2n1C1C[C@H]2CC[C@@H](C1)N2CC[C@H](NC(=O)c1ccc[n+]([O-])c1)c1cccc(F)c1 (stereo not given in full)	5 nM	–	–	–	–
Cc1nc2ccccc2n1C1C[C@H]2CC[C@@H](C1)N2CC[C@H](NC(=O)c1cccc[n+]1[O-])c1cccc(F)c1 (stereo not given in full)	> 100 nM	–	–	–	–
Cc1nc2cnccc2n1C1C[C@H]2CC[C@@H](C1)N2CC[C@H](NC(=O)C1CC[S+]([O-])CC1)c1cccc(F)c1 (stereo not given in full)	4 nM	–	–	–	–
Cc1nc2ccncc2n1C1C[C@H]2CC[C@@H](C1)N2CCC(NC(=O)C1CC[S+]([O-])CC1)c1cccc(F)c1 (stereo not given in full)	1 nM	Not Active	50 µL/min/mg	–	Papp A→B at 5 µM [2]: 2 ×10⁻⁶ cm/s; Papp A→B at 5 µM [4]: 2 ×10⁻⁶ cm/s
